Measurements: US9914735B2, “Heteroaryl Syk inhibitors” (Boehringer Ingelheim International GmbH, priority 2014, dated 2018)
Read-outs that look alike come from different tables or passages of the source.

Key:
[1] = molecular target: FLT3 (Homo sapiens (Human), UniProt P36888); assay: FLT3 kinase test (Z'-LYTE); format: biochemical
Description: The activity of FLT3 is measured using the Z′-LYTETM assay technology from Invitrogen (#PV3191)
The reaction is started by addition of 2.5 μl of the 4×ATP solution.
Positive controls are reaction mixtures containing no test compound; negative controls (blanks) are reaction mixtures containing no kinase. As a further control, the phosphopeptide solution is added to wells without kinase (=100% phosphorylation control).
The reaction is performed for 1 h at room temperature before 5 μl of the development solution is added. After a further incubation for 1 h at room temperature 5 μl of the stop reagent is added.
The output text file is evaluated in an “MS-Excel—VB-Makro” and “GraphPadPrism” (Version 5) (GraphPad Software Inc.) is used to calculate the results. Data for the inhibition of FLT3 are reported in M. data for the inhibition of the protease are reported in % CTL.

[2] = molecular target: Recombinant human Aurora B (amino acids 1-344) (Homo sapiens (Human), UniProt Q96GD4); assay: Aurora B kinase test (ADP Glo luminescence); format: biochemical
Chain of Recombinant human Aurora B (amino acids 1-344) (Q96GD4 whole entry, the tested form may be a part): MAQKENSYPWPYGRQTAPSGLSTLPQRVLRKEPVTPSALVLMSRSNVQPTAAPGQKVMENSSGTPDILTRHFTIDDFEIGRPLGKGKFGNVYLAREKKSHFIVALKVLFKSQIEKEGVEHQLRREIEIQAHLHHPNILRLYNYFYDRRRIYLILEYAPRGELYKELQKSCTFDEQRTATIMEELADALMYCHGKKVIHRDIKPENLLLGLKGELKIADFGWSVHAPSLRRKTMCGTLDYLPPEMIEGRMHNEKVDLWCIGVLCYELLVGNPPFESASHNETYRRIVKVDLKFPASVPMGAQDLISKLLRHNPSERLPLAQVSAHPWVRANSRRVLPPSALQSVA
Description: The activity of the Aurora B kinase protein was determined using the ADP Glo® Luminescence Kinase test (Promega; V9103X).
Serial Dilution is done in 1:10 steps in 100% DMSO.
Then 20 μl Kinase detection mix (Detection Buffer #V913B Promega; Kinase Detection Substrate #V914B Promega) were added and incubated for 40 minutes at room temperature.
The output file of the reader is a csv file that contains the well number and measured RLU. For data evaluation and calculation, the measurement of the negative control was set as 0% ctrl and the measurement of the positive control was set as 100% ctrl. Based on this values the % value for the measurement of each substance concentration was calculated using an Assay Explorer software (Accelrys). Normally, the % ctrl values calculated are between 0% and 100% values but may also occur outside these limits in individual cases based on variability or compound characteristics. The IC50 values were calculated from the % ctrl values using Assay Explorer software. Calculation: [y=(a−d)/(1+(x/c)^b)+d], a=low value, d=high value; x=conc M; c=IC50 M; b=hill; y=% ctrl.

[3] = Human liver microsomal stability test; format: in vitro ADME; conditions: for microsomal stability Cl [% Qh]: human liver microsomes, Qh = liver blood flow
Description: The metabolic degradation for a specific SYK-inhibitor is performed at 37° C. with pooled human liver microsomes (human liver microsomes are commercially available as “BD UltraPool™” by Corning Life Sciences, Fogostraat 12, 1060 LJ Amsterdam, The Netherlands). The final incubation volume of 100 μl per time point contains TRIS buffer pH 7.6 at RT (0.1 M), magnesium chloride (5 mM), microsomal protein (1 mg/ml) and the test compound at a final concentration of 1 μM.
Following a short preincubation period at 37° C., the reaction is initiated by addition of beta-nicotinamide adenine dinucleotide phosphate in its reduced form (NADPH, 1 mM) and terminated by transfering an aliquot into solvent after different time points. Additionally, the NADPH-independent degradation is monitored in incubations without NADPH, terminated at the last time point.
The quenched (terminated) incubations are then pelleted by centrifugation (10000 g, 5 min).
An aliquot of the supernatant is assayed by LC-MS/MS for the remaining amount of parent compound. The half-life (t1/2 INVITRO) is determined by the slope of the semilogarithmic plot of the concentration-time profile.
The intrinsic clearance (CL_[…]) is calculated by considering the amount of protein in the incubation: CL_[…][μl/min/mg protein]=(Ln 2/(t1/2 INVITRO[min]*protein content[mg/ml]))*1000
The protein content [mg/ml] was determined with the “Bicinchoninic Acid Kit” of Sigma Aldrich (commercially available).
The upscaled intrinsic Clearance (CL_UP_INT) is calculated by considering the liver weight [g liver/kg body weight] and the microsomal recovery [mg protein/g liver]: CL_UP_INT[ml/min/kg]=0.001*CL_[…]*liver weight*microsomal recovery • with microsomal recovery=45 mg protein/g liver • with liver weight=25.7 g liver/kg body weight
The percent hepatic blood flow (% Qh) is finally calculated by considering the human liver blood flow Q [ml/min/kg]: % Qh[%]=((Q*CL_UP_INT)/(Q+CL_UP_INT)/Q)*100 • with liver blood flow (Q)=20.7 ml/min/kg.

[4] = molecular target: Human GSK3beta (Homo sapiens (Human), UniProt P49841); assay: GSK 3beta kinase test (Z'-LYTE); format: biochemical; conditions: read-out: IC50 in μM (GSK3beta-Inhibition)
Chain of Human GSK3beta (P49841 whole entry): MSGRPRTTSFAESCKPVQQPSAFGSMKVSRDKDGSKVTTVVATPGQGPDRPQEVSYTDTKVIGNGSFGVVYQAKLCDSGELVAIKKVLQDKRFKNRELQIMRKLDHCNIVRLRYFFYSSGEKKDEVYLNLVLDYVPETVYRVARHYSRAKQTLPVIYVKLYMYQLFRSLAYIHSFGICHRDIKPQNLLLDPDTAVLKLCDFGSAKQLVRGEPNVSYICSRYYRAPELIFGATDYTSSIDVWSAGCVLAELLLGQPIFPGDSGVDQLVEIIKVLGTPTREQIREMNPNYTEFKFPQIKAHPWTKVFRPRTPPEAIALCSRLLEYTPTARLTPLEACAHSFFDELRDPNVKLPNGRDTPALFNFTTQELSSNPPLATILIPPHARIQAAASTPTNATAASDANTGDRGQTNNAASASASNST
Description: Human GSK3beta (expressed and prified from SF21 cells) is obtained from the University Dundee/Scotland (Dr. James Hastie—Dept. of Biochemistry) in 50 mM Tris (pH7.5); 150 mM NaCl; 0.1 mM EGTA, 270 mM Succrose, 0.1% β-mercaptoethanol, 1 mM benzamidine, 0.2 mM PMSF; sequence see below). The enzyme is diluted to 3.56 μM (168 μg/ml) in enzyme dilution buffer and 6 μl aliquots are stored at −80° C.
The activity of GSK3 kinase protein is measured using the Z′-LYTETM assay technology from Invitrogen (# PV3324).
The assay is performed in 384 black plates from Corning (#3676) in a final volume of 10 μl by adding 5 μl of kinase peptide mix and 2.5 μl of compound dilution. The reaction is started by addition of 2.5 μl of the 4×ATP solution.
Positive controls are reaction mixtures containing no test compound; negative controls (blanks) are reaction mixtures containing no ATP. As a further control, the phosphopeptide solution is added to wells without kinase and without ATP (=100% phosphorylation control).
The non inhibited kinase reaction will result in a phosphorylation corresponding to 20%-30% of the phosphorylation control.
The reaction is performed 1 h at room temperature. After 1h 5 μl of the development solution is added. After a further incubation for 1 h at room temperature 5 μl of the stop reagent is added. Finally the plates are read on a Flex Station II 384 (Molecular Devices).
The output text file is evaluated in an “MS-Excel—VB-Makro” and “GraphPadPrism” (Version 5) (GraphPad Software Inc.) is used to calculate the results. Data for the inhibition of GSK3beta are reported in M. data for the inhibition of the protease are reported in % CTL.

[5] = read-out: IC50 in μM (FLT3-Inhibition)
[6] = read-out: IC50 in μM (AURB-Inhibition)
[7] = read-out: IC50-values with regard to AURB

Chain of FLT3 (P36888 27-993): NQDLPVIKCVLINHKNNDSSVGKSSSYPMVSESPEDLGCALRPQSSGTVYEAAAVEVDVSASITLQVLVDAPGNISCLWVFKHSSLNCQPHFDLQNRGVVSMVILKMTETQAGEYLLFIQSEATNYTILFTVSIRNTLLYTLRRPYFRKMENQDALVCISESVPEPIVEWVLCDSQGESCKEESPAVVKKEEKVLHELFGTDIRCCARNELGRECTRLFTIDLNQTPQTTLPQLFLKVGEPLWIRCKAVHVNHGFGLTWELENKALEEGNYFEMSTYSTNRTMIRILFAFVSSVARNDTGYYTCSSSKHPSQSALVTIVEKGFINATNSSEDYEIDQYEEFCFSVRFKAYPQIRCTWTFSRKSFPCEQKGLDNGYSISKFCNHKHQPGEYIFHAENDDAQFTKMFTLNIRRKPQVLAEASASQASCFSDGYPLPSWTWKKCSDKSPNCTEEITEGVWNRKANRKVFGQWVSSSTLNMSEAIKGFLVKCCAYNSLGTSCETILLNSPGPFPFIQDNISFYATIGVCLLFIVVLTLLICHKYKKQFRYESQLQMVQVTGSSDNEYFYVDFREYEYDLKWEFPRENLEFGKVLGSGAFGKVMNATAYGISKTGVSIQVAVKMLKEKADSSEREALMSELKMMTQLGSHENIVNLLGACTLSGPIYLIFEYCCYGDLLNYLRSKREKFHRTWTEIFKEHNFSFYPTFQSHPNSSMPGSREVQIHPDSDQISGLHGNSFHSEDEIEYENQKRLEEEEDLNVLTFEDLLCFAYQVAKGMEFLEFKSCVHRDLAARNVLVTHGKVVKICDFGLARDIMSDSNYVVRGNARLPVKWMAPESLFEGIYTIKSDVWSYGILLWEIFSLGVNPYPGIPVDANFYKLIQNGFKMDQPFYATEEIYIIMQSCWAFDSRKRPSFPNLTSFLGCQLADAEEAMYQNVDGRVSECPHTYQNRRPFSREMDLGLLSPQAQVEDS

| SMILES | IC50 [1, 5] [µM] | IC50 [2, 6] [µM] | microsomal stability Cl [% Qh] [3] [% Qh] | IC50 [4] [µM] | IC50 [2, 7] [µM] | human liver microsomal stability CI [3] [% Qh] | IC50 ([1]; Table 1, read-out: FLT3-inhibition IC50-value) [µM] | IC50 ([2]; Table 1, read-out: AURB-inhibition IC50-value) [µM] |
| --- | --- | --- | --- | --- | --- | --- | --- | --- |
| C[C@@H](Oc1cc(-c2ccc(C(=O)N3CCN(C)CC3)cc2)cc2ncccc12)[C@H]1CNC(=O)C1 [76 of WO 2013/014060] | 0.169 | 0.075 | <23 | > 10 |  |  |  |  |
| C[C@@H](Oc1cc(-c2ccc3cnn(C)c3c2)cc2ncccc12)[C@H]1CNC(=O)C1 [42 of WO 2013/014060] | 0.618 | 0.63 | <23 | > 10 |  |  |  |  |
| C[C@@H](Oc1cc(-c2ccc(CN3CCOCC3)cc2)cc2ncccc12)[C@H]1CNC(=O)C1 [43 of WO 2013/014060] | 0.157 | 0.144 | <23 |  |  |  |  |  |
| COc1cc(-c2cc(O[C@H](C)[C@H]3CNC(=O)C3)c3cccnc3c2)ccc1O [11 of WO 2013/014060] |  | 0.752 | 24 | > 10 |  |  |  |  |
| Cc1c(-c2cc(O[C@H](C)[C@H]3CNC(=O)C3)c3cccnc3c2)cnn1C [112 of WO 2013/014060] |  |  | <23 |  |  |  |  |  |
| C[C@@H](Oc1cc(-c2ccc3ncccc3c2)cc2ncccc12)[C@H]1CNC(=O)C1 [29 of WO 2013/014060] | 0.315 | 0.293 | 44 | > 10 |  |  |  |  |
| C[C@@H](Oc1nc(-c2ccc(OC(F)(F)F)c(F)c2)cc2ncccc12)[C@H]1CNC(=O)C1 [1 of WO 2011/092128] | 1.53 | 5.09 |  | > 10 |  |  |  |  |
| C[C@@H](Oc1cc(-c2ccc3ncn(C)c3c2)cc2ncccc12)[C@H]1CNC(=O)C1 [81 of WO 2013/014060] | 0.514 | 0.949 | <23 | > 10 |  |  |  |  |
| C[C@@H](Oc1cc(-c2ccc3c(c2)CNCC3)cc2ncccc12)[C@H]1CNC(=O)C1 [101 of WO 2013/014060] | 0.14 | 1.05 | <23 | > 10 |  |  |  |  |
| COc1cc(-c2cc(O[C@H](C)[C@H]3CNC(=O)C3)c3cccnc3c2)cc(OC)c1OC [example 2 of WO2013/014060, reference compound] |  |  |  |  | 16.9 | 81 |  |  |
| COc1cc(-c2cc3nn(C)cc3c(O[C@H](C)[C@H]3CNC(=O)C3)n2)ccc1O [Example 8, (4R)-4-[(1R)-1-[6-(4-Hydroxy-3-methoxy-phenyl)-2-methyl-pyrazolo[4,3-c]pyridin-4-yl]oxyethyl]pyrrolidin-2-one] | 13.5 | > 50 | <23 | > 10 |  |  | 13.5 | > 50 |
| COc1cc(-c2cc(O[C@H](C)[C@H]3CNC(=O)C3)c3cccnc3c2)ccc1OC(C)C [10 of WO 2013/014060] | 0.312 | 0.271 | 57 | > 10 |  |  |  |  |
| CCCn1cc(-c2cc(O[C@H](C)[C@H]3CNC(=O)C3)c3cccnc3c2)cn1 [114 of WO 2013/014060] |  |  | 26 |  |  |  |  |  |
| C[C@@H](Oc1cc(-c2ccc3[nH]cnc3c2)cc2ncccc12)[C@H]1CNC(=O)C1 [41 of WO 2013/014060] | 0.505 | 0.308 | 37 | > 10 |  |  |  |  |
| COc1cc(-c2cc3ncccc3c(O[C@H](C)[C@H]3CNC(=O)C3)n2)cc(OC)c1Cl [example 8 of WO 2011/092128, reference compound] |  |  |  |  | > 50 | 77 |  |  |
| CC(C)n1cc(-c2cc(O[C@H](C)[C@H]3CNC(=O)C3)c3cccnc3c2)cn1 [115 of WO 2013/014060] |  |  | <23 |  |  |  |  |  |
| COc1ccc(-c2cc(O[C@H](C)[C@H]3CNC(=O)C3)c3cccnc3c2)cc1OC [8 of WO 2013/014060] | 0.369 | 0.643 | 58 | > 10 |  |  |  |  |
| C[C@@H](Oc1cc(-c2ccc(N3CCOCC3)cc2)cc2nn(C)cc12)[C@H]1CNC(=O)C1 [Example 22, (4R)-4-[(1R)-1-[2-Methyl-6-(4-morpholinophenyl)indazol-4-yl]oxyethyl]-pyrrolidin-2-one] |  |  | 25 | > 10 |  |  |  |  |
| COc1cc(-c2cc3ncccc3c(O[C@H](C)[C@H]3CNC(=O)C3)n2)cc(OC)c1Cl [8 of WO 2011/092128] | > 50 | > 50 | 77 | > 10 |  |  |  |  |
| COc1cc(-c2cc(O[C@H](C)[C@H]3CNC(=O)C3)c3cccnc3c2)cc(OC)c1OC [2 of WO 2013/014060] | 7.39 | 16.9 | 81 | > 10 |  |  |  |  |
| COc1cc(-c2cc3ncccc3c(O[C@H](C)[C@H]3CNC(=O)C3)n2)cc(Cl)c1OC [7 of WO 2011/092128] | 0.452 | 2.33 | 79 | > 10 |  |  |  |  |
